Experimental data from patent publication US20090069441A1, “Motuporamine Mimic Agents” (priority 2006, published 2009).
Where two headings read alike, the source gives them in different places.

How the values were obtained:
[1] = test system: Drosophila imaginal leg discs; experiment: Imaginal disc eversion assay; assay type: cell-based, Drosophila melanogaster; settings: 15 hr incubation in Robb's medium; for inhibition at 18 µM: Drosophila melanogaster
Description: DihydroMotuporamine C, 4a, was used to develop an imaginal disc assay in Drosophila flies. The imaginal leg discs were collected by microscopic dissection from maggots. […] Inhibition was measured as failure of the disc to fully develop into a fly leg after 15 hr of incubation in Robb's growth medium. This presumably occurs by overactivation of Rho, an important signaling pathway in development. Hyper-stimulation of this pathway is sufficient to block development of the fly leg.
Fly Stocks: 20 female and 5 male wild type Oregon variant of Drosophila melanogaster interbred in blue food medium for 24 hours then flies are removed. Third instar wall-crawling larvae collected then dissected on the sixth day. Flies kept in 25° C. incubation chamber.
Blue Food Preparation: Standard corn meal medium heated then mixed completely with aqueous 1% Bromophenol Blue. The food medium is cooled for one day or more before use.
Dissection Medium: Ringer's Buffer with 10 uL 0.1% BSA. Ringer's Medium consists of 130 mM NaCl, 5 mM KCl, 1.5 mM CaCl2-2H2O, Stored at room temperature (23° C.), BSA added before dissection.
Cultivation Medium: Minimal Robb's Medium with 10 uL 0.1% BSA. Minimal Robb's Medium consists of 40 mM KCl, 0.4 mM KH2PO4, 40 mM NaCl, 0.4 mM NaH2PO4.7H2O, 1.2 mM MgSO4.7H2O, 1.2 mM MgCl2-6H2O, 1 mM CaCl2-2H2O, 10 mM Glucose, 0.2 mM L-asparagine, 4.0 mM L-glutamine, 0.16 mM Glycine, 0.64 mM L-leucine, 0.32 mM L-proline, 0.16 mM R-Serine, 0.64 mM L-valine. Stored at −25° C. One day before dissection, aliquot defrosted in 4° C. Add BSA then warmed to room temperature (23° C.) before dissection.
0.1% BSA: 0.1 g BSA fraction V (Sigma#A-9647) in 10 mL distilled H2O, Stored at 4° C.
Developmental Hormone: 1 mg 20-hydroxyecdysone (Sigma #H-5142) in 1 mL 100% Ethanol. Stored at −25° C. Before use, stock is diluted 10× (1 mL added to 9 mL of 100% Ethanol). 10 μL of diluted 20-hydroxyecdysone is added to culture.
Dissection Procedures: Third instar larvae are removed from cultivation bottle with a wetted brush and washed in dH2O to remove food medium clinging to larvae. The cleaned larvae are dissected in Ringer's Medium using forceps. The imaginal discs are washed in fresh Ringer's Medium, and then cultivated with 1 mL of Robb's Medium in 12-well culture plate. Each culture well should have 30˜40 imaginal discs.
Culturing Procedures: In a larger container, place the 12-well culture plate on a moist towel, then seal the large container. Cultivate at 25° C. for 15 hours. Evaluation: Three categories will be used to grade the eversion of each imaginal disc. Full Eversion—the leg is fully extended from the disc. Partial Eversion—the leg is protruding from the epithelial. No Eversion—no sign of any protrusion.

L1210 cells = experiment: Cytotoxicity (cell growth, MTT) in L1210 cells; assay type: cell-based, mouse
Description: (§1) In terms of Table 1, L1210 cells are mouse leukemia cells and are the gold standard in terms of evaluating polyamine cytotoxicity data due to a plethora of prior data in this cell line for other polyamine structures. Clearly 7a was similar in all respects to 4a (Table 1). […] The lower the Ki value, the higher the affinity of the drug for the polyamine transporter (PAT) on the cell surface. Chinese hamster ovary (CHO) cells and a mutant line without an active PAT (CHO-MG) also evaluated the PAT selectivity of these drugs.
Biological Evaluation. Once synthesized, the conjugates were screened for cytotoxicity in L1210, CHO and CHO-MG cells. L1210 (mouse leukemia) cells were selected to enable comparisons with the published IC50 and Ki values for a variety of polyamine substrates. Chinese Hamster Ovary (CHO) cells were chosen along with a mutant PAT deficient cell line (CHO-MG) in order to comment on selective transport via the PAT (Wang et al, J. Med. Chem. 2003, 46, 2663-2671; Wang et al, J. Med. Chem. 2003, 46, 2672-2682; Wang et al., J. Med. Chem. 2003, 46, 5129-5138; Delcros et al., J. Med. Chem., 2002, 45, 5098-5111).
(§2) L1210 IC50 and Ki studies. […] The Ki values in Table 3 were determined for [^14C]spermidine uptake and reflect the affinity of the polyamine derivative for the polyamine transporter on the cell surface. With both parameters, one can determine whether high affinity for the transporter (e.g., low Ki value) translated into high cytotoxicity (e.g., low IC50 value), etc.
(§3) Biological studies. Murine leukemia cells (L1210), CHO and CHO-MG cells were grown in RPMI medium supplemented with 10% fetal calf serum, glutamine (2 mM), penicillin (100 U/mL), streptomycin (50 μg/mL). L-Proline (2 μg/mL) was added to the culture medium for CHO-MG cells. Cells were grown at 37° C. under a humidified 5% CO2 atmosphere. Aminoguanidine (AG, 2 mM) was added to the culture medium to prevent oxidation of the drugs by the enzyme (bovine serum amine oxidase) present in calf serum. Trypan blue staining was used to determine cell viability before the initiation of a cytotoxicity experiment. Cells in early to mid log-phase were used. IC50 determinations. Cell growth was assayed in sterile 96-well microtiter plates (Becton-Dickinson, Oxnard, Calif., USA). L1210 cells were seeded at 5e^4 cells/mL of medium (100 μL/well). CHO and CHO-MG cells were plated at 2e^3 cells/mL. Drug solutions (10 μL per well) of appropriate concentration were added at the time of seeding for L1210 cells and after an overnight incubation for the CHO cell lines. After exposure to the drug for 48 hr, cell growth was determined by measuring formazan formation from 3-(4,5-dimethylthiazol-2-yl)2,5-diphenyltetrazolium using a Titertek Multiskan MCC/340 microplate reader for absorbance (540 nm) measurements (Mosmann, T., J. Immunol. Methods 1983, 65, 55-63).

[2] = test system: polyamine transporter (PAT); experiment: Ki for inhibition of [14C]spermidine uptake in L1210 cells; assay type: cell-based, mouse; settings: [14C]spermidine uptake, 10-min, 1 μM substrate; read-out: L1210 Ki values
Description: as §1, §2
Ki procedure. The ability of the conjugates to interact with the polyamine transport system was determined by measuring competition by the conjugates against radiolabeled spermidine uptake in L1210 cells. Initially, the Km value of spermidine transport was determined as previously described (Clément et al., Biochem. J. 1995, 312, 933-938). The ability of conjugates to compete for [^14C]spermidine uptake were determined in L1210 cells by a 10-min uptake assay in the presence of increasing concentrations of competitor, using 1 μM [^14C]spermidine as substrate. Ki values for inhibition of spermidine uptake were determined using the Cheng-Prusoff equation (Cheng and Prusoff, Biochem. Pharmacol. 1973, 22, 3099-3108) from the IC50 value derived by iterative curve fitting of the sigmoidal equation describing the velocity of spermidine uptake in the presence of the respective competitor (Torossian et al., Biochem. J., 1996, 319, 21-26). L1210 cells were grown and maintained according to established procedures (Bergeron et al., J. Med. Chem. 2000, 43, 224-235) and were washed twice in HBSS prior to the transport assay.

CHO-MG cells = experiment: Cytotoxicity in PAT-deficient CHO-MG cells; assay type: cell-based, Chinese hamster
Description: as §1
(§4) CHO and CHO-MG studies. Chinese hamster ovary (CHO) cells were chosen along with a mutant cell line (CHO-MG) in order to comment on how the synthetic conjugates gain access to cells. The CHO-MG cell line is polyamine-transport deficient and was isolated after selection for growth resistance to methylglyoxalbis(guanylhydrazone), MGBG, (CH3C[═N—NHC(═NH)NH2]CH[═N—NHC(═NH)NH2]) using a single-step selection after mutagenesis with ethylmethanesulfonate (Mandel et al., J. Cell. Physiol., 1978, 97, 335-344; Byers et al., Biochem. J. 1989, 263, 745-752).
For the purposes of this study, the CHO-MG cell line represents cells with no PAT activity and provided a model for alternative modes of entry or action, which are independent of PAT. These alternative modes of entry include passive diffusion or utilization of another transporter. The alternative modes of action may also include interactions on the outer surface of the plasma membrane or other membrane receptor interactions.
as §3, with “Aminoguanidine (AG, 2 mM) was added to the culture medium to prevent oxidation of the drugs by the enzyme (bovine serum amine oxidase) present in calf serum.” left out

CHO cells = experiment: Cytotoxicity in CHO cells; assay type: cell-based, Chinese hamster
Description: as §1, §4
In contrast, the parent CHO cell line represents a cell type with high PAT activity. Comparison of conjugate cytotoxicity in these two CHO lines provided an important screen to detect selective conjugate delivery via the PAT. For example, a conjugate with high utilization of the polyamine transporter would be very toxic to CHO cells, but less so to CHO-MG cells. In short, highly-selective PAT ligands should give high (CHO-MG/CHO) IC50 ratios.
as §3, with “Aminoguanidine (AG, 2 mM) was added to the culture medium to prevent oxidation of the drugs by the enzyme (bovine serum amine oxidase) present in calf serum.” left out

CCOCCCNCCCN(CC)Cc1c2ccccc2cc2ccccc12 [Compound 21, N-Anthracen-9-ylmethyl-N′-(3-ethoxy-propyl)-N-ethyl-propane-1,3-diamine]
inhibition at 18 µM [1]: 36%

CCN(CCCN)Cc1c2ccccc2cc2ccccc12 [Compound 12c, N^1-Anthracen-9-ylmethyl-N^1-ethyl-propane-1,3-diamine]
inhibition at 18 µM [1]: 79%

CCNCCCCNCCCCNCc1c2ccccc2cc2ccccc12 [Compound 27, N-Anthracen-9-ylmethyl-N′-(4-ethylamino-butyl)-butane-1,4-diamine]
IC50 (L1210 cells; Mus musculus, L1210, in the presence of AG, 48 h at 37° C., read-out: L1210 IC50): 1.01 µM | IC50 (L1210 cells; Mus musculus, L1210 experiments, no added SPD, read-out: L1210 IC50): 1.01 µM | Ki [2]: 3.5 µM | IC50 (CHO-MG cells; Cricetulus griseus, CHO-MG, absence of AG, 48 h, read-out: CHO-MG IC50 w/o AG): 51.2 µM | IC50 (CHO-MG cells; Cricetulus griseus, CHO-MG, in the presence of AG, 48 h at 37° C., read-out: CHO-MG IC50): 57.9 µM | IC50 (CHO cells; Cricetulus griseus, CHO, absence of AG, 48 h, read-out: CHO IC50 w/o AG): 13.2 µM | IC50 (CHO cells; Cricetulus griseus, CHO, in the presence of AG, 48 h at 37° C., read-out: CHO IC50): 9.82 µM | CHOMG/CHO IC50 ratio in the absence of AG (CHO cells; absence of AG): 4 | IC50 Ratio (CHO-MG/CHO) w/o AG (CHO cells; absence of AG): 4 | IC50 Ratio (CHO-MG/CHO), a measure of PAT selectivity (CHO cells; in the presence of AG): 5.9 | CHOMG/CHO IC50 ratio (CHO cells; with AG): 5.9 | IC50 Ratio (CHO-MG/CHO) with AG (CHO cells; with AG): 5.9

NCCCCNCc1c2ccccc2cc2ccccc12 [Compound 13b]
% Inhibition of eversion ([1]; 18 μM): 91%

CCN(CCCNCCCO)Cc1c2ccccc2cc2ccccc12 [Compound 20, 3-[3-(Anthracen-9-ylmethyl-ethyl-amino)-propylamino]-propan-1-ol]
inhibition at 18 µM [1]: 38%

NCCCNCc1c2ccccc2cc2ccccc12 [Compound 16, N1-Anthracen-9-ylmethyl-propane-1,3-diamine]
inhibition at 18 µM [1]: 92%

CNCCCCNCCCCNCc1c2ccccc2cc2ccccc12 [Compound 28, N-Anthracen-9-ylmethyl-N′-(4-methylamino-butyl)-butane-1,4-diaine]
IC50 (L1210 cells; L1210 experiments, no added SPD, read-out: L1210 IC50): 0.4 µM | IC50 (L1210 cells; in the presence of AG, 48 h at 37° C., read-out: L1210 IC50): 0.4 µM | IC50 (L1210 cells; spermidine rescue, excess SPD (200 μM), read-out: L1210 IC50 in the presence of added SPD): 1.38 µM | Ki [2]: 8.2 µM | IC50 (CHO-MG cells; absence of AG, 48 h, read-out: CHO-MG IC50 w/o AG): 56.2 µM | IC50 (CHO-MG cells; in the presence of AG, 48 h at 37° C., read-out: CHO-MG IC50): 60 µM | CHOMG/CHO IC50 ratio in the absence of AG (CHO cells; absence of AG): 11.5 | IC50 Ratio (CHO-MG/CHO) w/o AG (CHO cells; absence of AG): 11.5 | IC50 (CHO cells; absence of AG, 48 h, read-out: CHO IC50 w/o AG): 4.89 µM | IC50 Ratio (CHO-MG/CHO), a measure of PAT selectivity (CHO cells; in the presence of AG): 12.3 | IC50 (CHO cells; in the presence of AG, 48 h at 37° C., read-out: CHO IC50): 4.88 µM | IC50 Ratio (CHO-MG/CHO) with AG (CHO cells; with AG): 12.3

CCN(CCCNCCCNC(C)=O)Cc1c2ccccc2cc2ccccc12 [Compound 24, N-{3-[3-(Anthracen-9-ylmethyl-ethyl-amino)-propylamino]-propyl}-acetamide]
inhibition at 18 µM [1]: 58%
